What was measured:
5-HT3 receptors [1] = target: T1, 5-HT3 receptors (Rattus norvegicus, UniProt P35563); assay: Bradycardic Bezold-Jarisch reflex in anesthetized rats; format: in vivo, Sprague-Dawley; details: for dose completely preventing the agonist-induced bradycardia: prior i.v. administration, against 30 μg i.v. agonist; for fall in the cardiac rhythm / duration of the fall in the cardiac rhythm: i.v. injection of 30 μg; for duration of the fall in the cardiac rhythm: approximately
T1 construct: bradycardia induced by stimulation of 5-HT3 receptors on vagal afferent neurons; from tissue; host or cells: whole anesthetized rat; receptors on vagal afferent neurons
T1 sequence (P35563 24-483): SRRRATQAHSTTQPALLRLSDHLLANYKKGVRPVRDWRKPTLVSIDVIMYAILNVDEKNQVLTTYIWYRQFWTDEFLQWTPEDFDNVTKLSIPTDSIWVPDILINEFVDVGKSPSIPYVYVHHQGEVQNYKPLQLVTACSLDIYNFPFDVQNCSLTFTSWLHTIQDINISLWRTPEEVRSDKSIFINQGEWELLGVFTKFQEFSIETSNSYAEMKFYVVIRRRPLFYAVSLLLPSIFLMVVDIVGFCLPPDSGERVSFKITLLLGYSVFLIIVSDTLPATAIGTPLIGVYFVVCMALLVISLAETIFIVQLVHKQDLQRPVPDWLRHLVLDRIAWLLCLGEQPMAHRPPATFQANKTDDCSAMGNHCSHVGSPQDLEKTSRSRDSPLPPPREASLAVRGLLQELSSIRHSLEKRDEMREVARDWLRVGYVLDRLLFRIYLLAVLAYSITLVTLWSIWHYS
Method: Bradycardia (Bezold-Jarisch reflex) is induced by the intravenous injection of 5-HT3 serotonin in rats anesthetized with urethane.
This response consists of a violent but transitory bradycardia induced by stimulation of 5-HT3 receptors on vagal afferent neurons.
The animal (adult male rat, Sprague-Dawley strain, 250-300 g) is first of all anesthetized with urethane (1.4 g/kg i.p.) and then a tracheotomy is performed in order to implant a tracheal cannula. A catheter (0.3 mm)is introduced into the abdominal aorta via the femoral artery for the continuous recording of the arterial pressure and the cardiac rhythm.
Bradycardia is expressed as percentage of lowering (maximum) of the base rhythm, before any treatment (means±M.S.D.).

5-HT3 receptors [2] = target: T2, 5-HT3 receptors (Mus musculus, UniProt P23979); assay: Accumulation of 14C-guanidinium in NG 108-15 cells; details: for multiplication of the intracellular accumulation of 14C-guanidinium: fold, agonist at 10 μM-0.1 mM
T2 sequence (P23979 24-489): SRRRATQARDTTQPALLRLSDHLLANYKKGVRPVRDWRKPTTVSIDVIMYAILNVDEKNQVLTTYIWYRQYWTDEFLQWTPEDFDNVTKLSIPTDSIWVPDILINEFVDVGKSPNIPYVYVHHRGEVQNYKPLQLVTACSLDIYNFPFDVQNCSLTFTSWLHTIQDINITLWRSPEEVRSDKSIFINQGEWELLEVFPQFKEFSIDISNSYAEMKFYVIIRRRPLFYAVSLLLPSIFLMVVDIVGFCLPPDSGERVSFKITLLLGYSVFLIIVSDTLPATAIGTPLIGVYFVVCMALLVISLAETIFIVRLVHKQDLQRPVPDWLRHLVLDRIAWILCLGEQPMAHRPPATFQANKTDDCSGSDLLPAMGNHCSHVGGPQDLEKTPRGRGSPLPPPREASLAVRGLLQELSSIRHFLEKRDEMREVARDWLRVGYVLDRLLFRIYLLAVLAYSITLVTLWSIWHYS
Method: The accumulation of ^14 -C-guanidinium in NG 108-15 cells is measured and makes it possible to study the interaction of the tested compounds with 5-HT3 receptors, knowing that this accumulation is stimulated by agonists of 5-HT3 receptors.
The NG 108-15 hybrid clone (neuroblastoma-glioma) is cultured under standard conditions (Dulbecco's medium to which 40 mM of sodium bicarbonate, 1.8 mM of L-glutamine, 0.1 mM of hypoxanthine, 1 μM of aminopterin, 16 μM of thymine and 10% of fetal calf serum are added) at 37° C. in an atmosphere enriched in CO2 (7%). At confluence (.congruent.3.5×10^5 cells in dishes with diameters of 35 mm), the culture medium is sucked off and the cell lawn is rapidly washed with 3 cm^3 of a HEPES (20 mM) buffer containing 145 mM of NaCl, 5.4 mM of KCl, 1.8 mM of CaCl2, 1.0 mM of MgCl2 and 20 mM of glucose, pH 7.4. […] The incubation lasts 10 minutes at 37° C. The medium is then sucked off and the cells are rapidly washed twice with 3 cm^3 of the washing buffer in which the NaCl has been fully replaced by an equimolar concentration of choline chloride. Finally, the cell lawn is taken up in 0.5 cm^3 of 0.4N sodium hydroxide solution and the accumulated radioactivity is counted by spectrometry in liquid medium (Aquasol).

[3] = Solubility in DMSO (NMR remark); format: physicochemical; details: d6-DMSO, tetrahydrochloride
[4] = doses (I.V.) 30, 60 and 120 μg·Kg^-1 (one value given)

COc1cc(N)c(Cl)cc1C(=O)NC1CN2CCC1CC2 (stereo not shown) [zacopride]
dose completely preventing the agonist-induced bradycardia (5-HT3 receptors [1]): 1 µg/kg

NCCc1c[nH]c2ccc(O)cc12 [serotonin]
multiplication of the intracellular accumulation of 14C-guanidinium (5-HT3 receptors [2]): 5
Agonist Effect, Bradycardia % (5-HT3 receptors [1]; dose (I.V.) 30 μg·Kg^-1, n = 21, maximum lowering of base rhythm, means ± M.S.D.): 68.0 ± 2.3%
fall in the cardiac rhythm (5-HT3 receptors [1]): -80%
duration of the fall in the cardiac rhythm (5-HT3 receptors [1]): 4 to 5 s

c1ccc(CN2CCN(c3ccc4nc(N5CCN(Cc6ccccc6)CC5)c5cccn5c4n3)CC2)cc1 [Example 93, 2,6-bis(4-benzylpiperazino)pyrido[3,2-e]pyrrolo[1,2-a]pyrazine]
solubility in DMSO [3]: insoluble

Cc1nccn1CC1CCc2c(c3ccccc3n2C)C1=O (stereo not shown) [ondansetron]
dose completely preventing the agonist-induced bradycardia (5-HT3 receptors [1]): 1 µg/kg

Fc1ccc(CN2CCN(c3nc4cc(Cl)ccc4n4cccc34)CC2)cc1 [Example 4, 7-CHLORO-4-[4-(4-FLUOROBENZYL)PIPERAZINO]PYRROLO[1,2-a]QUINOXALINE]
EC50 (5-HT3 receptors [2]): 100 nM
Antagonist effect at (concentration) (5-HT3 receptors [2]; antagonist effect, 14C-guanidinium accumulation, NG 108-15 cells): 3 nM
Agonist Effect, Bradycardia % (5-HT3 receptors [1]; [4]): 0%

Cc1[nH]c2ccc(O)cc2c1CCN [2-methyl-5-hydroxytryptamine]
multiplication of the intracellular accumulation of 14C-guanidinium (5-HT3 receptors [2]): 5
fall in the cardiac rhythm (5-HT3 receptors [1]): -80%
duration of the fall in the cardiac rhythm (5-HT3 receptors [1]): 4 to 5 s

Clc1ccc2c(c1)nc(N1CCN(Cc3ccccc3)CC1)c1cccn12 [Example 3, 4-(4-benzylpiperazino)-7-chloropyrrolo[1,2-a]quinoxaline]
EC50 (5-HT3 receptors [2]): 50 nM
Agonist Effect, Bradycardia % (5-HT3 receptors [1]; [4]): 0%

c1ccc(CN2CCN(c3nc4cccnc4n4cccc34)CC2)cc1 [Example 11, 6-(4-benzylpiperazino)pyrido[3,2-e]pyrrolo [1,2-a]pyrazine]
EC50 (5-HT3 receptors [2]): 30 nM
Antagonist effect at (dose) (5-HT3 receptors [1]; I.V., rat, Bezold-Jarisch reflex): 120 µg/kg
Agonist Effect, Bradycardia % (5-HT3 receptors [1]; dose (I.V.) 120 μg·Kg^-1, n = 7, maximum lowering of base rhythm, means ± M.S.D.): 59.4 ± 7.2%

c1ccc(CN2CCN(c3nc4ccccc4n4cccc34)CC2)cc1 [Example 1, 4-(4-benzylpiperazino)pyrrolo[1,2-a]quinoxaline]
EC50 (5-HT3 receptors [2]): ~100 nM

Reference: US5599812A, “Tricyclic pyrrolopyrazine 5-HT3 -active compounds” (Adir Et Compagnie, priority 1993, dated 1997)
